Results: paper PMC8347481, “Germacranolides from Carpesium divaricatum: Some New Data on Cytotoxic and Anti-Inflammatory Activity” (Molecules, 2021)
Like-named read-outs stand apart in the source and are kept apart here.

What was measured:
[1] = LDH cell viability assay, normal prostate epithelial cells; type: cell-based, human; details: human, PNT2 normal prostate epithelial cells, 24 h, read-out: Cell Viability (%) ± SD
Experimental: (§1) Normal prostate epithelial cells (PNT2), two prostate cancer cell lines (Du145 and PC3), human keratinocytes (HaCaT), two melanoma cell lines (A375 and HTB140) and two colon cancer cell lines (HT29 and Caco-2) were treated with 3 at a concentration range 1.0–50.0 µg/mL. Viability of the cells was estimated using lactate dehydrogenase (LDH) assay.
(§2) Cytotoxic activity of 3 was tested on human cancer and normal cells, grouped in three panels: prostate, skin and gastrointestinal. The prostate panel comprised prostate cancer cell lines DU145 (ATCC HTB-81) and PC3 (ATCC CRL-1435) and prostate normal epithelial cells PNT2 (ECACC 95012613). Melanoma cell lines A375 (ATCC CRL-1619) and HTB140 (ATCC Hs 294T) together with human keratinocytes HaCaT (obtained as a kind gift of Prof. Marta Michalik, Department of Cell Biology, Jagiellonian University) were included in the skin panel. Two colon cancer cell lines, namely Caco-2 (ATCC HTB-37) and HT29 (ATCC HTB-38), constituted the gastrointestinal panel. Du145 cells were grown in a modified Eagle’s medium with low (1.0 g/L) glucose concentration; HT29, PC3 and PNT-2 cells were grown in Dulbecco’s modified Eagle’s medium (DMEM) and F12 HAM Nutrient Mixture; Caco-2 cells were grown in modified Eagle’s medium with nonessential amino acids (NEAA); and melanoma cells and keratinocytes were maintained in modified Eagle’s medium with high (4.5 g/L) glucose concentration. The culture media contained antibiotics and 10% fetal bovine serum (FBS). All cultures were maintained at 37 °C in a humidified, 5% CO2-containing atmosphere.
(§3) The examined compound (3) was diluted in the culture media from freshly made stock solution in MeOH (10 mg/mL) to the working concentrations (from 0 to 50 μg/mL). Cell viability was determined as described previously. […] Then, the culture medium was replaced with the medium containing different concentrations of the assessed compound (1–50 μg/mL). After 24 h of incubation, the viability of the cells was determined using colorimetric lactate dehydrogenase (LDH) assay in comparison to the controls to which corresponding aliquots of MeOH diluted with culture media were added. Cells grown in the medium without the tested compound were used as control I (negative), and the positive control (control II) was obtained by incubation of the cells in the medium containing 1% Triton X-100. LDH released from the damaged cells into the cell culture medium was quantified by measuring the absorbance at 490 nm using a Synergy II Biotek microplate reader. Cytotoxicities of the examined compounds were calculated as follows: ((absorbance of the tested sample−absorbance of control I)/(absorbance of control II−absorbance of control I)) × 100. Results were means of three independent measurements (± SD). Doxorubicin (Ebewe Pharma G.m.b.H., Unterach, Austria) was used as a reference cytostatic drug.

[2] = tested on: PNT2; assay: as above; type: cell-based, human; details: Homo sapiens, PNT2, 24 h, LDH assay
Experimental: as §1, §2, §3

[3] = tested on: HT29; assay: LDH cell viability assay, colon cancer cells; type: cell-based; details: Homo sapiens, HT-29; for IC50: HT29, 24 h, LDH assay
Experimental: as §1, §2, §3

[4] = value in parentheses, read-out: IC50 (IC50 µM) (converted)

- IC50 [3, 4]: 13.3 µM
- IC50 ([3]; read-out: IC50): 6.23 ± 0.89 µg/mL
Structure (SMILES): C=C1C(=O)O[C@H]2[C@H]1[C@@H](O)[C@H](OC(=O)CC(C)C)[C@H](C)CCC(=O)[C@](C)(O)[C@@H]2OC(=O)C(C)C [Compound 3]
- viability at 24 h, 1 µg/mL ([1]; PNT2, 1 µg/mL): 87.1 ± 1.79%
- viability at 24 h, 3 µg/mL ([1]; PNT2, 3 µg/mL): 77.2 ± 1.32%
- viability at 24 h, 5 µg/mL ([1]; PNT2, 5 µg/mL): 69.4 ± 0.97%
- viability at 24 h, 10 µg/mL ([1]; PNT2, 10 µg/mL): 52.8 ± 2.31%
- viability at 24 h, 20 µg/mL ([1]; PNT2, 20 µg/mL): 32.5 ± 1.84%
- viability at 24 h, 30 µg/mL ([1]; PNT2, 30 µg/mL): 21.4 ± 0.45%
- viability at 24 h, 50 µg/mL ([1]; PNT2, 50 µg/mL): 3.29 ± 1.27%
- IC50 [2, 4]: 35 µM
- IC50 ([2]; read-out: IC50): 16.4 ± 0.4 µg/mL
- viability at 1 µg/mL ([3]; HT29, 1 µg/mL, 24 h, read-out: Cell Viability (%) ± SD): 69.3 ± 1.75%
- viability at 3 µg/mL ([3]; HT29, 3 µg/mL, 24 h, read-out: Cell Viability (%) ± SD): 58 ± 1.66%
- viability at 5 µg/mL ([3]; HT29, 5 µg/mL, 24 h, read-out: Cell Viability (%) ± SD): 49.2 ± 2%
- viability at 10 µg/mL ([3]; HT29, 10 µg/mL, 24 h, read-out: Cell Viability (%) ± SD): 38 ± 2.29%
- viability at 20 µg/mL ([3]; HT29, 20 µg/mL, 24 h, read-out: Cell Viability (%) ± SD): 24.4 ± 1.1%
- viability at 30 µg/mL ([3]; HT29, 30 µg/mL, 24 h, read-out: Cell Viability (%) ± SD): 10.4 ± 1.09%
- viability at 50 µg/mL ([3]; HT29, 50 µg/mL, 24 h, read-out: Cell Viability (%) ± SD): 0.79 ± 0.78%
